Reference: patent publication US9567301B2, “Pyrrol-1-yl benzoic acid derivatives useful as myc inhibitors” (Whitehead Institute for Biomedical Research, priority 2012, dated 2017)

What was measured:
c-Myc/Max/Ebox DNA = c-Myc/Max/Ebox DNA (Homo sapiens, UniProt P01106); experiment: c-Myc/Max/Ebox DNA AlphaScreen assay; assay type: binding; parameters: An exemplary assay uses full-length human c-Myc and Max proteins; his6 (cleaved yes); made in house; details: c-Myc/Max/Ebox DNA AlphaScreen; NA: inactive under assay conditions; read-out: Biochemical IC50
Procedure: This protocol was used to generate the biochemical data in Table 2 and FIG. 11. The primary AlphaScreen assay is amenable to 384-well and 1536-well plate formats for HTS. Human his6-c-Myc and his6-Max were used with biotinylated DNA containing a single Ebox sequence (biotin[…]) purchased from MWG Operon. Free c-Myc was generated from his6-c-Myc through thrombin cleavage of the his6 tag. For 384-well plate assays, 10 μL of a 2× solution of free c-Myc (25 nM final), Ni++-coated Acceptor Bead (25 μg/ml final), and biotinylated Ebox oligo (10 nM final) were added to 384-well plates with a Biotek EL406 liquid handler. 100 nL of compounds from stock plates were added by pin transfer using a Janus Workstation (PerkinElmer), allowing the compounds to interact with c-Myc prior to c-Myc binding with Max. In the current assay, DMSO was not allowed to exceed 2% v/v of the assay. 10 μl of 2× master mix containing streptavidin-coated donor beads (25 μg/ml final) and his6-Max (1.25 nM final) were added. AlphaScreen measurements were performed on an Envision 2104 (PerkinElmer) utilizing the manufacturer's protocol. The assay can also be performed in 1536-plate format with 8 μL total volume using two 4 μL additions (instead of […] and 10 μL respectively).
Assays are performed with minor modifications from the manufacturer's protocol (PerkinElmer). Both master mixes were made in room temperature assay buffer (50 mM HEPES, 150 mM NaCl, 0.2% w/v BSA, 0.02% w/v Tween20, 40 μg/ml glycogen, 500 μM DTT, pH 8.0, DTT and glycogen added fresh). Alpha beads were added to respective master solutions and wrapped in foil. All subsequent steps were performed in low light conditions. Solution 1: 2× solution of components with final concentrations of cMyc (25 nM), Ni-coated Acceptor Bead (25 μg/ml), and biotinylated Ebox oligo (10 nM). Solution 2: 2× solution of streptavidin-coated donor beads (25 μg/ml final) and his6-Max (1.25 nM final). […] Solution 1 were added to 384-well plate (AlphaPlate-384, PerkinElmer) with Biotek EL406 liquid handler and the plates were centrifuged at 1000 rpm for 1 minute. 100 nL of compounds from stock plates were added by pin transfer using a Janus Workstation. 10 μL Solution 2 were added with the liquid handler. Plates were sealed with foil to block light exposure and prevent evaporation. Plates were centrifuged at 1000 rpm for 1 minute followed by 2 hour incubation. AlphaScreen measurements were performed on an Envision 2104 utilizing the manufacturer's protocol. Excitation was at 680 nm for donor bead release of singlet oxygen and emission was read with a bandpass filter from 520-620 nm. Glycogen: Roche Diagnostics #10901393001. Plate 1536: Perkin Elmer, 6004350. Plate 384: Perkin Elmer, 6005350. Nickel-His Alpha Beads: 6760619R.

H2171 cells = experiment: Cell viability assay (ATPlite), H2171; assay type: cell-based, human; details: Homo sapiens, NCI-H2171, 72 h, cell viability, three days, ATPlite; NA: inactive under assay conditions
Procedure: This assay was used for the H2171 and MM1S cell data shown in Table 2, and for the Jurkat (an immortalized line of human T lymphocyte cells), Ly1 (OCI-Ly1 human non-Hodgkin lymphoma cell line), Ly4 (OCI-Ly4 human non-Hodgkin lymphoma cell line), H2172 (NCI-H2172 human non-small cell lung cancer cell line), and CA-46 (a human Burkitt's lymphoma cell line) cell data shown in Table 3 and FIG. 12. Cells were counted and adjusted to 60,000 cells/mL. Using a Biotek EL406, 50 μL of cells are media were distributed into 384 well white plates from Thermo. Immediately after plating, compound in DMSO was distributed to plates. For large plate sets, cells were returned to 37° C. incubator while not in use.
Compounds were added to plates using a 100 nL 384 well pin transfer manifold on a Janus workstation. Stocks were arrayed in 10 point quadruplicate dose response in DMSO stock in 384 well Greiner compound plates. After addition of compound, plates were incubated for three days in a 37° C. incubator.
Cell viability was read out using ATPlite from Perkin Elmer. Plates were removed from the incubator and brought to room temperature prior to use. Lyophilized powder was resuspended in lysis buffer and diluted 1:2 with DI water. 25 μL of this solution was added to each well using the Biotek liquid handler. Plates were sealed with adherent aluminum seals prior to vortexing and spinning down at 1000 g for 1 minute. Plates were incubated for 15 minutes at room temperature before signal was read on an Envision Plate Reader.

Chain of c-Myc/Max/Ebox DNA (P01106 16-454): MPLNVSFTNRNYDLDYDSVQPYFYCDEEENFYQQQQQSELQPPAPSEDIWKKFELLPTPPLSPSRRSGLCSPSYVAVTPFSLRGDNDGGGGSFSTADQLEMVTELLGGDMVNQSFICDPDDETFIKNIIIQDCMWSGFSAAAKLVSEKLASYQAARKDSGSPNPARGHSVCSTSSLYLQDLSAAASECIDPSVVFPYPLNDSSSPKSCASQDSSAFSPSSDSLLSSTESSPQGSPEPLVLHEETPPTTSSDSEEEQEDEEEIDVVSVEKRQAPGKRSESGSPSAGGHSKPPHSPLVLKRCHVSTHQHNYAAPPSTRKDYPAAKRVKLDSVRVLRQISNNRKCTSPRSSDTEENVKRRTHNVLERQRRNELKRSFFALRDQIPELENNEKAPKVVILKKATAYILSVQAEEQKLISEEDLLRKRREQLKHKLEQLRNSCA

Cc1ccc(C)n1-c1cc(C(=O)N/N=C/c2c[nH]c3ccc(F)cc23)ccc1C(=O)O [Compound 95]
IC50 (c-Myc/Max/Ebox DNA): 23.3 µM

Cc1cc2c(n1-c1cccc(C(=O)O)c1)CC(C)(C)CC2=O [Compound 42]
IC50 (c-Myc/Max/Ebox DNA): 697 µM

Cc1ccc(C)n1-c1cc(C(=O)N/N=C/c2ccc3nccnc3c2)ccc1C(=O)O [Compound 104]
IC50 (c-Myc/Max/Ebox DNA): 7.11 µM

Cc1cc(/C=C2\C(=O)NC(=O)N(c3ccc(F)cc3)C2=O)c(C)n1-c1ccccc1C(=O)O [Compound 55]
IC50 (c-Myc/Max/Ebox DNA): 58.5 µM

Cc1ccc(C)n1-c1cc(C(=O)N/N=C/c2ccccc2)ccc1C(=O)O [Compound 121]
IC50 (c-Myc/Max/Ebox DNA): 7.69 µM

Cc1cc2c(n1-c1ccc(C(=O)O)cc1)CCCCC2 [Compound 48]
IC50 (c-Myc/Max/Ebox DNA): 51.8 µM

CC(=O)OCOC(=O)c1ccc(C(=O)N/N=C/c2c[nH]cn2)cc1-n1c(C)ccc1C [Compound 108]
EC50 (H2171 cells): 0.556 µM

Cc1ccc(C)n1-c1cc(C(=O)N/N=C/c2c[nH]c3cc(F)ccc23)ccc1C(=O)O [Compound 96]
IC50 (c-Myc/Max/Ebox DNA): 34.4 µM
EC50 (H2171 cells): 38.1 µM

Cc1ccc(C)n1-c1cc(C(=O)N/N=C/c2cc(F)c(F)c(F)c2)ccc1C(=O)O [Compound 107]
IC50 (c-Myc/Max/Ebox DNA): 9.3 µM
EC50 (H2171 cells): 32.3 µM

Cc1cc(/C=C(/C#N)c2nc3ccccc3[nH]2)c(C)n1-c1ccccc1C(=O)O [Compound 59]
IC50 (c-Myc/Max/Ebox DNA): 125 µM

Cc1cc(C(=O)O)ccc1-n1c(C)ccc1C [Compound 11]
IC50 (c-Myc/Max/Ebox DNA): 45.8 µM
EC50 (H2171 cells): 60.6 µM

Cc1ccc(C)n1-c1ccc(Br)cc1C(=O)O [Compound 36]
IC50 (c-Myc/Max/Ebox DNA): 64.7 µM

CC(=O)Nc1ccc(N2CCCC(C)C2)c(C(=O)O)c1 (stereo not shown) [Compound 34]
IC50 (c-Myc/Max/Ebox DNA): 191 µM

Cc1cc2c(n1-c1ccc(C(=O)O)cc1)CC(C)(C)CC2=O [Compound 50]
IC50 (c-Myc/Max/Ebox DNA): 446 µM

CCCCC(=O)Nc1ccc(N2CCC(C)CC2)c(C(=O)O)c1 [Compound 32]
IC50 (c-Myc/Max/Ebox DNA): 881 µM

Cc1ccc(C)n1-c1cc(C(=O)N/N=C\c2ccc(O)c(F)c2)ccc1C(=O)O [Compound 117]
IC50 (c-Myc/Max/Ebox DNA): 6.52 µM

Cc1cc(/C=C2\SC(=O)N(C)C2=O)c(C)n1-c1ccccc1C(=O)O [Compound 56]
IC50 (c-Myc/Max/Ebox DNA): 103 µM

Cc1ccc(C(=O)O)cc1-n1c(C)cc(CN2CCC(N)(C(=O)O)C2)c1C (stereo not shown) [Compound 44]
IC50 (c-Myc/Max/Ebox DNA): 194 µM

Cc1cc(C(=O)N/N=C/c2ccccc2)c(C)n1-c1ccccc1C(=O)O [Compound 61]
IC50 (c-Myc/Max/Ebox DNA): 49.2 µM

O=C(O)c1cc(-n2cccc2)ccc1N1CCOCC1 [Compound 30]
IC50 (c-Myc/Max/Ebox DNA): 273 µM

Cc1ccc(C)n1-c1cc(C(=O)N/N=C\c2cc(F)c(C(=O)O)c(F)c2)ccc1C(=O)O [Compound 118]
IC50 (c-Myc/Max/Ebox DNA): 0.48 µM

Cc1ccc(C)n1-c1ccc(Cl)cc1C(=O)O [Compound 35]
IC50 (c-Myc/Max/Ebox DNA): 31.3 µM

Cc1cc(/C=C2\SC(=O)N(C)C2=O)c(C)n1-c1ccccc1C(=O)O [Compound 57]
IC50 (c-Myc/Max/Ebox DNA): 92.2 µM

Cc1ccc(C)n1-c1cc(C(=O)N/N=C/c2ccc(O)cc2)ccc1C(=O)O [Compound 83]
IC50 (c-Myc/Max/Ebox DNA): 6.85 µM

CC(=O)c1cc(C)n(-c2ccc(C(=O)O)cc2)c1C [Compound 47]
IC50 (c-Myc/Max/Ebox DNA): 166 µM

Cc1ccc(C)n1-c1cc(C(=O)N/N=C/c2cccnc2)ccc1C(=O)O [Compound 86]
IC50 (c-Myc/Max/Ebox DNA): 5.97 µM

Cc1ccc(C)n1-c1cc(C(=O)N/N=C/c2cc(C(=O)O)ccc2F)ccc1C(=O)O [Compound 125]
IC50 (c-Myc/Max/Ebox DNA): 1.25 µM

Cc1ccc(C)n1-c1cc(C(=O)N/N=C/c2ccc(-c3cncnc3)cc2)ccc1C(=O)O [Compound 102]
IC50 (c-Myc/Max/Ebox DNA): 26.5 µM

CC1(C)CC(=O)c2cc(CC(=O)O)n(-c3ccc(C(=O)O)cc3)c2C1 [Compound 51]
IC50 (c-Myc/Max/Ebox DNA): 523 µM

Cc1c(-c2ccccc2)c2c(n1-c1ccc(C(=O)O)cc1)CCCC2 [Compound 49]
IC50 (c-Myc/Max/Ebox DNA): 42 µM

Cc1ccc(C)n1-c1ccc(C(=O)O)cc1 [Compound 3]
IC50 (c-Myc/Max/Ebox DNA): 287 µM

Cc1ccc(C)n1-c1cc(C(=O)N/N=C/c2ccc(C(=O)O)o2)ccc1C(=O)O [Compound 124]
IC50 (c-Myc/Max/Ebox DNA): 0.708 µM

Cc1cccc(C)c1-c1ccccc1C(=O)O [Compound 60]
IC50 (c-Myc/Max/Ebox DNA): 89.1 µM

Cc1ccc(C)n1-c1cc(Cl)ccc1C(=O)O [Compound 38]
IC50 (c-Myc/Max/Ebox DNA): 63.7 µM

Cc1cc(/C=N/NC(N)=S)c(C)n1-c1ccccc1C(=O)O [Compound 54]
IC50 (c-Myc/Max/Ebox DNA): 16.3 µM

Cc1ccc(C)n1-c1cc(C(=O)NCCc2ccc(O)c(O)c2)ccc1C(=O)O [Compound 73]
IC50 (c-Myc/Max/Ebox DNA): 33.4 µM

Cc1ccc(C)n1-c1cc(C(=O)N/N=C/c2cccc(B(O)O)c2)ccc1C(=O)O [Compound 82]
IC50 (c-Myc/Max/Ebox DNA): 2.95 µM

Cc1ccc(-c2ccccc2)n1-c1ccccc1C(=O)O [Compound 41]
IC50 (c-Myc/Max/Ebox DNA): 324 µM

Cc1cc(/C=C(\C#N)C(=O)Nc2ccc(O)cc2)c(C)n1-c1ccccc1C(=O)O [Compound 52]
IC50 (c-Myc/Max/Ebox DNA): 36.2 µM

Cc1ccc(C(=O)O)cc1-n1c(C)cc(CN2C[C@H](N(C)C)C[C@H]2CO)c1C [Compound 45]
IC50 (c-Myc/Max/Ebox DNA): 115 µM

CN(C)c1ccc(/N=N/c2ccccc2C(=O)O)cc1 [Compound 154]
IC50 (c-Myc/Max/Ebox DNA): 43.4 µM

CC(=O)Nc1ccc(N2CCCCCC2)c(C(=O)O)c1 [Compound 33]
IC50 (c-Myc/Max/Ebox DNA): 171 µM

Cc1ccc(C)n1-c1cc(C(=O)NNC(=O)c2cccc(C(=O)O)c2)ccc1C(=O)O [Compound 166]
IC50 (c-Myc/Max/Ebox DNA): 1.89 µM

Cc1ccc(C)n1-c1cc(C(=O)O)ccc1O [Compound 4]
IC50 (c-Myc/Max/Ebox DNA): 34.1 µM

COc1cc(C(=O)O)c(-n2c(C)ccc2C)cc1OC [Compound 37]
IC50 (c-Myc/Max/Ebox DNA): 62.7 µM

Cc1ccc(C)n1-c1cc(C(=O)N2CCc3ccc(C(=O)O)cc3C2)ccc1C(=O)O [Compound 165]
IC50 (c-Myc/Max/Ebox DNA): 0.343 µM

Cc1cc(/C=C(/C#N)C(=O)NCCc2c[nH]c3ccccc23)c(C)n1-c1ccccc1C(=O)O [Compound 58]
IC50 (c-Myc/Max/Ebox DNA): 135 µM

Cc1ccc(C)n1-c1cc(C(=O)N/N=C/c2cccc(C(=O)O)c2)ccc1C(=O)O [Compound 120]
IC50 (c-Myc/Max/Ebox DNA): 0.393 µM

Cc1ccc(C)n1-c1cc(C(=O)N/N=C/c2c[nH]cn2)ccc1C(=O)O [Compound 78]
IC50 (c-Myc/Max/Ebox DNA): 1.75 µM

Cc1ccc(C)n1-c1cc(C(=O)N/N=C/c2ccc(S(=O)(=O)O)o2)ccc1C(=O)O [Compound 84]
IC50 (c-Myc/Max/Ebox DNA): 0.534 µM

Cc1ccc(C)n1-c1cccc(C(=O)O)c1 [Compound 2]
IC50 (c-Myc/Max/Ebox DNA): 74.5 µM

Cc1ccc(C)n1-c1ccc(C(=O)O)c(O)c1 [Compound 5]
IC50 (c-Myc/Max/Ebox DNA): 4.29 µM

CC1(C)CC(=O)c2cc(CC(=O)O)n(-c3cccc(C(=O)O)c3)c2C1 [Compound 43]
IC50 (c-Myc/Max/Ebox DNA): 197 µM

CCCC(=O)Nc1ccc(N2CCCCCC2)cc1C(=O)O [Compound 31]
IC50 (c-Myc/Max/Ebox DNA): 172 µM

Cc1cc(/C=C2\C(=O)NC(=O)N(C)C2=O)c(C)n1-c1cccc(C(=O)O)c1 [Compound 46]
IC50 (c-Myc/Max/Ebox DNA): 76.8 µM

O=C(O)c1ccccc1-n1c(-c2ccccc2)cc2c1CCCC2=O [Compound 29]
IC50 (c-Myc/Max/Ebox DNA): 252 µM

CC(=O)Nc1ccc(-n2c(C)ccc2C)c(C(=O)O)c1 [Compound 40]
IC50 (c-Myc/Max/Ebox DNA): 34.4 µM

CN1CCN(c2ccccc2C(=O)O)CC1 [Compound 156]
IC50 (c-Myc/Max/Ebox DNA): 346 µM

Cc1ccccc1N1C(=O)NC(=O)/C(=C\c2cc(C)n(-c3ccccc3C(=O)O)c2C)C1=O [Compound 53]
IC50 (c-Myc/Max/Ebox DNA): 2510 µM

COC(=O)c1ccc(-n2c(C)ccc2C)cc1O [Compound 18]
IC50 (c-Myc/Max/Ebox DNA): 1.54 µM

Cc1c2ccccc2c(C)n1-c1ccccc1C(=O)O [Compound 137]
IC50 (c-Myc/Max/Ebox DNA): 57.8 µM
